Some test systems named below: M14; HCC 2998; HT-29; SF-268; HOP-92; SK-MEL-28; SK-MEL-2; OVCAR-8; BT-549; MOLT-4; NCI-H226; NCI/ADR-RES; COLO 205; KM12; U-251; 786-0; T47D; LOX IMVI; EKVX.
Assay in all cases: NCI anticancer screen, dose series, 48 h

Molecules are shown by their SMILES.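 Step 1: Grow cells in 96-well plates. Step 2: Expose to compound for 48 hours at 5 concentrations. Step 3: Interpolate endpoints linearly; if unreached, use highest concentration. Here, GI50 denotes the concentration required for 50% inhibition of growth.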 Calls of active or inactive are those of the source. Cut-off read from the data, not from the text of the source: active = GI50 up to about 1.1 µM and inactive = higher.

The values below come from ChEMBL document CHEMBL1201862, “PubChem BioAssay data set” (2004).

On to `O=C(/C=C/c1ccc(O)c(O)c1)OCCc1cccc2ccccc12`, for which the GI50 in the assay on M14 was 5.65 µM (inactive); in the assay with HCC 2998, 11.1 µM (inactive); in the assay with HT-29, 13.4 µM (inactive); with SF-268 it was 4.76 µM (inactive); in the assay on HOP-92, 10.6 µM (inactive); in the assay with SK-MEL-28, 4.15 µM (inactive). For the same compound, the GI50 with SK-MEL-2 was 3.44 µM (inactive); with OVCAR-8 it was 5.07 µM (inactive); in the assay on BT-549, 7.85 µM (inactive); in the assay on MOLT-4, 1.61 µM (inactive); with NCI-H226, 22 µM (inactive); in the assay on NCI/ADR-RES, 6.15 µM (inactive). Further, the GI50 with COLO 205 was 5.69 µM (inactive); in the assay on KM12, 3.55 µM (inactive); in the assay with U-251, 6.15 µM (inactive); in the assay on 786-0, 3 µM (inactive); in the assay with T47D, 12.6 µM (inactive).

As for `O=C(c1ccc([N+](=O)[O-])cc1)N1CCCC1`, the GI50 in the assay on M14, in the assay on HCC 2998, in the assay on HT-29, with LOX IMVI, in the assay with SF-268 and in the assay on HOP-92 was > 100 µM (inactive) throughout. Further, the GI50 with SK-MEL-28, in the assay on OVCAR-8, in the assay on BT-549, with MOLT-4, in the assay with NCI-H226 and in the assay on EKVX was > 100 µM (inactive) each time. For the same compound, the GI50 in the assay on NCI/ADR-RES, with KM12, in the assay with U-251, with 786-0 and with T47D was > 100 µM (inactive) each time.

As for `N=C(N)N/N=C/c1c(-c2ccc([N+](=O)[O-])cc2)nc2sccn12`, the GI50 in the assay with M14 is 1.91 µM (inactive); in the assay on HCC 2998, 1.43 µM (inactive); in the assay on HT-29 it was 1.53 µM (inactive); with LOX IMVI, 1.86 µM (inactive); with SF-268, 1.85 µM (inactive); in the assay on HOP-92, 1.9 µM (inactive). The GI50 in the assay with SK-MEL-28 was 1.94 µM (inactive); in the assay with SK-MEL-2, 1.76 µM (inactive); in the assay on OVCAR-8, 2.12 µM (inactive); with BT-549, 1.82 µM (inactive); with MOLT-4, 1.53 µM (inactive); in the assay with NCI-H226, 1.75 µM (inactive). The GI50 in the assay on EKVX was 1.8 µM (inactive); with NCI/ADR-RES it was > 100 µM (inactive); in the assay with COLO 205, 0.676 µM (active); in the assay on KM12, 0.759 µM (active); in the assay on U-251, 1.58 µM (inactive); in the assay with 786-0 it was 1.47 µM (inactive). Moreover, in the assay on T47D, the GI50 was 1.74 µM (inactive).

Take `O=C(CC(O)(C(F)(F)F)C(F)(F)F)c1cccs1`: the GI50 with M14, with HCC 2998, with HT-29, in the assay with LOX IMVI, with SF-268 and with HOP-92 was > 10 µM (inactive) in each case. Also, the GI50 with SK-MEL-28, with OVCAR-8, in the assay with BT-549, in the assay with MOLT-4, in the assay with NCI/ADR-RES and in the assay with COLO 205 was > 10 µM (inactive) throughout. The GI50 in the assay with KM12, in the assay with U-251, in the assay with 786-0 and in the assay with T47D was > 10 µM (inactive) in each case.

Regarding `Cc1nc(N(C(C)C)C(C)C)c(C(C)C)o1`, the GI50 in the assay with M14, with HCC 2998, with HT-29, in the assay with LOX IMVI, in the assay on SF-268 and with HOP-92 was > 100 µM (inactive) throughout. For the same compound, the GI50 with SK-MEL-28, in the assay on OVCAR-8, in the assay with BT-549, in the assay with MOLT-4, in the assay on NCI-H226 and in the assay with EKVX was > 100 µM (inactive) in each case. Also, the GI50 in the assay on NCI/ADR-RES, in the assay on COLO 205, in the assay on KM12, in the assay on U-251, with 786-0 and in the assay on T47D was > 100 µM (inactive) in each case.

For `Cc1nc2ccc(Cl)cc2c2c1CCO2`, the GI50 in the assay with HCC 2998 is > 100 µM (inactive); in the assay on HT-29 it was 95.1 µM (inactive); with LOX IMVI, 67.5 µM (inactive); with SF-268, 68.9 µM (inactive); with HOP-92, 80 µM (inactive); in the assay on SK-MEL-28, > 100 µM (inactive). Further, the GI50 in the assay with OVCAR-8 is 99.5 µM (inactive); with BT-549, 92.9 µM (inactive); with MOLT-4 it was 45.2 µM (inactive); in the assay with NCI-H226 it was 94.4 µM (inactive); in the assay on EKVX, 17.1 µM (inactive); in the assay on NCI/ADR-RES it was > 100 µM (inactive). Moreover, the GI50 in the assay on COLO 205 is 83.9 µM (inactive); in the assay with KM12, > 100 µM (inactive); in the assay on U-251 it was > 100 µM (inactive); in the assay on 786-0 it was > 100 µM (inactive); in the assay with T47D it was 88.7 µM (inactive).

For `O=c1[nH]c2nc3ccccc3c(=O)n2/c1=C/c1ccc(Cl)cc1`, the GI50 in the assay on M14 is 36.9 µM (inactive); with HCC 2998, 21.7 µM (inactive); in the assay with LOX IMVI it was 30.4 µM (inactive); in the assay on SF-268, 26.9 µM (inactive); in the assay on HOP-92, 27.4 µM (inactive); in the assay on SK-MEL-28 it was 23.5 µM (inactive). The GI50 is > 100 µM (inactive) in the assay on SK-MEL-2; 16.1 µM (inactive) with OVCAR-8; 16.9 µM (inactive) in the assay with BT-549; 51.6 µM (inactive) in the assay on MOLT-4; 26.2 µM (inactive) in the assay with NCI/ADR-RES; 38.5 µM (inactive) in the assay with COLO 205. In addition, the GI50 in the assay with KM12 was 18.4 µM (inactive); with U-251, 28.2 µM (inactive); in the assay on 786-0, 24.2 µM (inactive); with T47D, 36.2 µM (inactive).

`CC[C@H](CCCC[C@H]1CC[C@@H]2CC(=O)C[C@H]12)OC`: the GI50 was > 100 µM (inactive) in the assay with M14; > 100 µM (inactive) in the assay on HCC 2998; 59 µM (inactive) in the assay on HT-29; > 100 µM (inactive) with LOX IMVI; 27.4 µM (inactive) with HOP-92; > 100 µM (inactive) in the assay with SK-MEL-2. Also, the GI50 in the assay with OVCAR-8 is > 100 µM (inactive); in the assay with BT-549, 36.9 µM (inactive); in the assay with MOLT-4, 53.6 µM (inactive); in the assay on NCI-H226, > 100 µM (inactive); in the assay on EKVX it was 60.1 µM (inactive); in the assay with NCI/ADR-RES it was 47.4 µM (inactive). Also, the GI50 with COLO 205 was > 100 µM (inactive); in the assay with KM12 it was > 100 µM (inactive); in the assay with U-251 it was 95.5 µM (inactive); in the assay on 786-0, > 100 µM (inactive); in the assay on T47D, 58.9 µM (inactive).

For the compound `Cc1ccc(S(=O)(=O)c2c(O)c3ccc(O)c(C)c3oc2=O)cc1`, the GI50 in the assay with M14, with HCC 2998, in the assay on HT-29, in the assay on SF-268, in the assay with HOP-92 and in the assay with SK-MEL-28 was > 100 µM (inactive) each time. The GI50 in the assay with SK-MEL-2, in the assay with OVCAR-8, with BT-549, with MOLT-4, with NCI-H226 and in the assay with EKVX was > 100 µM (inactive) throughout. Besides, the GI50 in the assay on NCI/ADR-RES, in the assay on COLO 205, with KM12, in the assay on U-251, with 786-0 and with T47D was > 100 µM (inactive) throughout.

Take `O=C(NCCCN(CCCCN(CCCNC(=O)C(F)(F)F)CCCc1ccccc1)CCCc1ccccc1)C(F)(F)F`: the GI50 in the assay with M14 is 1.76 µM (inactive); in the assay with HCC 2998, 1.78 µM (inactive); with HT-29, 1.55 µM (inactive); in the assay on LOX IMVI, 1.85 µM (inactive); in the assay on SF-268, 1.63 µM (inactive); in the assay with HOP-92 it was 1.62 µM (inactive). Also, the GI50 in the assay on SK-MEL-28 was 1.64 µM (inactive); in the assay with OVCAR-8, 1.74 µM (inactive); in the assay with BT-549, 2.68 µM (inactive); in the assay on MOLT-4, 1.8 µM (inactive); in the assay on NCI-H226, 10.4 µM (inactive); in the assay on EKVX, 1.68 µM (inactive). The GI50 with NCI/ADR-RES is 3.45 µM (inactive); in the assay with COLO 205, 1.56 µM (inactive); with KM12, 1.95 µM (inactive); in the assay with U-251 it was 1.6 µM (inactive); in the assay on 786-0 it was 1.25 µM (inactive); in the assay with T47D, 1.85 µM (inactive).

As to `Clc1ccc(COC(Cn2ccnc2)c2ccc(Cl)cc2Cl)cc1` (stereo unspecified) [ECONAZOLE], the GI50 in the assay with M14 is 15 µM (inactive); in the assay on HCC 2998, 14.6 µM (inactive); in the assay on HT-29, 8.69 µM (inactive); with LOX IMVI, 6.98 µM (inactive); with SF-268, 14.3 µM (inactive); with HOP-92, 10.6 µM (inactive). For the same compound, the GI50 in the assay on SK-MEL-28 was 17.2 µM (inactive); in the assay with SK-MEL-2 it was 14.8 µM (inactive); in the assay with OVCAR-8 it was 11.4 µM (inactive); in the assay with BT-549 it was 18.9 µM (inactive); in the assay with MOLT-4, 2.99 µM (inactive); with EKVX, 11.8 µM (inactive). The GI50 was 4.44 µM (inactive) in the assay with NCI/ADR-RES; 11.5 µM (inactive) in the assay with COLO 205; 14 µM (inactive) in the assay with KM12; 13.2 µM (inactive) in the assay on U-251; 13.1 µM (inactive) in the assay on 786-0; 6.9 µM (inactive) in the assay on T47D.
